Assay results from patent publication US20170190671A1, “BIS(ARYL)CATECHOL DERIVATIVES AS HERBICIDES” (E I DU PONT DE NEMOURS AND COMPANY, priority 2014, published 2017).

Tests used:
Format in all cases: in vivo
[1] = system: sedge, umbrella (small-flower umbrella sedge, Cyperus difformis); test: Test B flooded paddy; conditions: Cyperus difformis, 336 h; 250 g ai/ha, Flood, 13 to 15 days, scale 0 (no effect) to 100 (complete control); read-out: Plant response rating, Sedge, Umbrella
Outline: (§1)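 Test compounds are applied straight into paddy water held 3 cm above the soil surface, with that flood maintained for the whole test. After 13 to 15 days in the greenhouse, each species is scored visually relative to controls.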

[2] = system: barnyardgrass (Echinochloa crus-galli); test: Test B flooded paddy; conditions: Echinochloa crus-galli, 336 h; 250 g ai/ha, Flood, 13 to 15 days, scale 0 (no effect) to 100 (complete control); read-out: Plant response rating, Barnyardgrass
Outline: as §1

rice (Oryza sativa) = test: Test B flooded paddy; conditions: Oryza sativa, 336 h; 250 g ai/ha, Flood, 13 to 15 days, scale 0 (no effect) to 100 (complete control); read-out: Plant response rating, Rice
Outline: as §1

[3] = system: ducksalad (Heteranthera limosa); test: Test B flooded paddy; conditions: Heteranthera limosa, 336 h; 250 g ai/ha, Flood, 13 to 15 days, scale 0 (no effect) to 100 (complete control); read-out: Plant response rating, Ducksalad
Outline: as §1

kochia (Kochia scoparia) [4] = test: Test A preemergence; conditions: Bassia scoparia, pre-emergence, 240 h, 0 to 100 scale, read-out: Plant response rating, Kochia
Outline: (§2)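 Greenhouse pot test, loam/sand soil. Formulation: non-phytotoxic solvent mix plus surfactant. Pre: directed spray onto soil after sowing. Post: plants at 1–2 leaf, 2–10 cm. Rated visually vs untreated controls at ~10 d, 0 (no effect) to 100 (complete control).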

[5] = system: barnyardgrass (Echinochloa crus-galli); test: Test A preemergence; conditions: Echinochloa crus-galli, pre-emergence, 240 h, 0 to 100 scale, read-out: Plant response rating, Barnyardgrass
Outline: as §2

[6] = system: giant foxtail (Setaria faberii); test: Test A preemergence; conditions: Setaria faberi, pre-emergence, 240 h, 0 to 100 scale, read-out: Plant response rating, Foxtail, Giant
Outline: as §2

[7] = system: Italian ryegrass (Lolium multiflorum); test: Test A preemergence; conditions: Lolium multiflorum, pre-emergence, 240 h, 0 to 100 scale, read-out: Plant response rating, Ryegrass, Italian
Outline: as §2

[8] = system: ragweed (common ragweed, Ambrosia elatior); test: Test A preemergence; conditions: Ambrosia artemisiifolia, pre-emergence, 240 h, 0 to 100 scale, read-out: Plant response rating, Ragweed
Outline: as §2

[9] = system: pigweed (Amaranthus retroflexus); test: Test A preemergence; conditions: Amaranthus retroflexus, pre-emergence, 240 h, 0 to 100 scale, read-out: Plant response rating, Pigweed
Outline: as §2

[10] = system: wheat (Triticum aestivum); test: Test A postemergence; conditions: Triticum aestivum, post-emergence, 240 h, 0 to 100 scale, read-out: Plant response rating, Wheat
Outline: as §2

kochia (Kochia scoparia) [11] = test: Test A postemergence; conditions: Bassia scoparia, post-emergence, 240 h, 0 to 100 scale, read-out: Plant response rating, Kochia
Outline: as §2

[12] = system: barnyardgrass (Echinochloa crus-galli); test: Test A postemergence; conditions: Echinochloa crus-galli, post-emergence, 240 h, 0 to 100 scale, read-out: Plant response rating, Barnyardgrass
Outline: as §2

[13] = system: giant foxtail (Setaria faberii); test: Test A postemergence; conditions: Setaria faberi, post-emergence, 240 h, 0 to 100 scale, read-out: Plant response rating, Foxtail, Giant
Outline: as §2

[14] = system: Italian ryegrass (Lolium multiflorum); test: Test A postemergence; conditions: Lolium multiflorum, post-emergence, 240 h, 0 to 100 scale, read-out: Plant response rating, Ryegrass, Italian
Outline: as §2

[15] = system: blackgrass (Alopecurus myosuroides); test: Test A postemergence; conditions: Alopecurus myosuroides, post-emergence, 240 h, 0 to 100 scale, read-out: Plant response rating, Blackgrass
Outline: as §2

corn (Zea mays) = test: Test A postemergence; conditions: Zea mays, post-emergence, 240 h, 0 to 100 scale
Outline: as §2

[16] = system: ragweed (common ragweed, Ambrosia elatior); test: Test A postemergence; conditions: Ambrosia artemisiifolia, post-emergence, 240 h, 0 to 100 scale, read-out: Plant response rating, Ragweed
Outline: as §2

[17] = system: pigweed (Amaranthus retroflexus); test: Test A postemergence; conditions: Amaranthus retroflexus, post-emergence, 240 h, 0 to 100 scale, read-out: Plant response rating, Pigweed
Outline: as §2

[18] = system: galium (catchweed bedstraw, Galium aparine); test: Test A postemergence; conditions: Galium, post-emergence, 240 h, 0 to 100 scale, read-out: Plant response rating, Galium
Outline: as §2

[19] = system: waterhemp (common waterhemp, Amaranthus rudis); test: Test C postemergence; conditions: Amaranthus tuberculatus, post-emergence, Postemergence, scale 0 to 100, read-out: Plant response rating, Waterhemp
Outline: (§3)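 Greenhouse test; preemergence to seeds in loam/sand soil, or postemergence spray to 2-18 cm, 1- to 4-leaf plants in peat/vermiculite medium; compound in non-phytotoxic solvent plus surfactant. Visual rating vs controls at 13-15 d, 0 = no effect, 100 = complete control.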

[20] = system: pigweed (Amaranthus retroflexus); test: Test C postemergence; conditions: Amaranthus retroflexus, post-emergence, 336 h, Postemergence, scale 0 to 100, read-out: Plant response rating, Pigweed
Outline: as §3

In the case of N#Cc1cccc(Oc2ncc(Cl)cn2)c1Oc1ncc(Br)cn1 [Compound 4, 2-[(5-bromo-2-pyrimidinyl)oxy]-3-[(5-chloro-2-pyrimidinyl)oxy]benzonitrile], the pest or weed control at 250 g/ha [1] is reported as 80%, the pest or weed control at 250 g/ha [2] is reported as 0% and the plant injury at 250 g/ha (rice (Oryza sativa)) is reported as 0%. It also gave a pest or weed control at 250 g/ha [3] of 95%, a pest or weed control at 125 g/ha (kochia (Kochia scoparia) [4]; 125 g ai/ha) of 90% and a pest or weed control at 500 g/ha (kochia (Kochia scoparia) [4]; 500 g ai/ha) of 100%. For the same compound, the pest or weed control at 125 g/ha ([5]; 125 g ai/ha) was 70%, the pest or weed control at 500 g/ha ([5]; 500 g ai/ha) was 100% and the pest or weed control at 125 g/ha ([6]; 125 g ai/ha) was 100%. The pest or weed control at 500 g/ha ([6]; 500 g ai/ha) was 100%, the pest or weed control at 125 g/ha ([7]; 125 g ai/ha) was 20% and the pest or weed control at 500 g/ha ([7]; 500 g ai/ha) was 100%. The pest or weed control at 125 g/ha ([8]; 125 g ai/ha) was 80%, the pest or weed control at 500 g/ha ([8]; 500 g ai/ha) was 100% and the pest or weed control at 125 g/ha ([9]; 125 g ai/ha) was 100%. It also gave a pest or weed control at 500 g/ha ([9]; 500 g ai/ha) of 100%, a plant injury at 125 g/ha ([10]; 125 g ai/ha) of 50% and a plant injury at 500 g/ha ([10]; 500 g ai/ha) of 100%. The pest or weed control at 125 g/ha (kochia (Kochia scoparia) [11]; 125 g ai/ha) was 100%, the pest or weed control at 500 g/ha (kochia (Kochia scoparia) [11]; 500 g ai/ha) was 100% and the pest or weed control at 125 g/ha ([12]; 125 g ai/ha) was 100%. It also gave a pest or weed control at 500 g/ha ([12]; 500 g ai/ha) of 100%, a pest or weed control at 125 g/ha ([13]; 125 g ai/ha) of 100% and a pest or weed control at 500 g/ha ([13]; 500 g ai/ha) of 100%. The pest or weed control at 125 g/ha ([14]; 125 g ai/ha) was 100%, the pest or weed control at 500 g/ha ([14]; 500 g ai/ha) was 100% and the pest or weed control at 125 g/ha ([15]; 125 g ai/ha) was 100%. For the same compound, the pest or weed control at 500 g/ha ([15]; 500 g ai/ha) was 100%, the Corn plant response rating (crop injury, 0 = no effect, 100 = complete kill) at 125 g/ha (corn (Zea mays); 125 g ai/ha) was 80% and the Corn plant response rating (crop injury, 0 = no effect, 100 = complete kill) at 500 g/ha (corn (Zea mays); 500 g ai/ha) was 100%. The pest or weed control at 125 g/ha ([16]; 125 g ai/ha) was 100%, the pest or weed control at 500 g/ha ([16]; 500 g ai/ha) was 100% and the pest or weed control at 125 g/ha ([17]; 125 g ai/ha) was 100%. It also gave a pest or weed control at 500 g/ha ([17]; 500 g ai/ha) of 100%, a pest or weed control at 125 g/ha ([18]; 125 g ai/ha) of 100% and a pest or weed control at 500 g/ha ([18]; 500 g ai/ha) of 100%. For the same compound, the pest or weed control at 31 g/ha ([19]; 31 g ai/ha) was 55%, the pest or weed control at 62 g/ha ([19]; 62 g ai/ha) was 75% and the pest or weed control at 125 g/ha ([19]; 125 g ai/ha) was 70%. It also gave a pest or weed control at 31 g/ha ([20]; 31 g ai/ha) of 65%, a pest or weed control at 62 g/ha ([20]; 62 g ai/ha) of 80% and a pest or weed control at 125 g/ha ([20]; 125 g ai/ha) of 95%.
